Assays:
254 Japanese subjects = tested on: 254 Japanese subjects; set-up: method as in PMID 11839608; settings: humans; cited from earlier work
TAS1R1/TAS1R3 variants = test: Ca2+ imaging (FlexStation II), comparison across receptor variants (AR, TR, AC, TC); type: cell-based, human; settings: MSG alone
Description: Intronless human TAS1Rs and Gαl6 expression constructs were generated in the pEF-DEST51 Gateway vector (Invitrogen) by genomic DNA-based methods. To subclone each gene into the vector, a Kozak cassette was introduced at the 5′ end before the start codon. Gαl6 chimeras were generated by PCR with mutagenic primers. The carboxyl-terminal tail of Gαl6, five-residue (EINLL) was replaced by its counterpart from Gαi3 (ECGLY; Gα16-i3), Gαgust (DCGLF; Gα16-gust), and Gα16-gust44 was generated as described. The integrity of all DNA constructs was confirmed by DNA sequencing. Point mutations in TAS1Rs were made using the same overlapping PCR strategy with mutagenic primers.
HEK293 cells were cultured at 37°C under a humidified atmosphere containing 5% CO2 in Dulbecco's modified Eagle's medium supplemented with 10% fetal bovine serum. To obtain reproducible Ca^2+ responses, cells were split every 2 days before cells become confluent. Cells were discarded after 2 months of passages and new cells were prepared from frozen-stock. For calcium imaging experiments, cells were seeded onto a 35 mm recording chamber or poly-D-lysine coated 96-well black-wall, clear-bottom recording plates. After 24 hrs at 37°C, confluent cells (60∼70%) were washed in OptiMEM medium supplemented with GlutaMAX-I (invitrogen) and plasmid DNAs were transiently cotransfected into HEK293 cells using Lipofectamine2000 regent (invitrogen) (2.0 µl per 1.0 µg DNA). […]
Student's t-test was used for detection of differences in the mean recognition thresholds between males and females. […] The mean values (the center±S.E. of gaussian curve on X-axis) in the distribution of recognition thresholds defined by TAS1R1/TAS1R3 haplotypes (TAS1R1-372A/TAS1R3-757R homozygotes, TAS1R1-372T/TAS1R3-757R homozygotes, homo- and heterozygotes containing TAS1R3-757C) were calculated using gauss fit function of Origin 5.0 (OriginLab Corp). For Ca^2+ imaging analysis, data were normalized to response to 10 µM ISO, and mean values (±S.E.) were calculated from 10∼18 independent analyses.

For N[C@@H](CCC(=O)O)C(=O)[O-].[Na+] [MSG, monosodium glutamate], the “difference of taste thresholds between taster and hypotaster groups” value (254 Japanese subjects) is given as “about 5 fold”, the “more sensitive responses (EC50 comparison) of 372T/757R (TR) compared to the other variants (AR, AC and TC)” value (TAS1R1/TAS1R3 variants) is given as “about 1.5 fold” and the EC50 (TAS1R1/TAS1R3 variants; the other variants (AR, AC and TC)) is given as 27.6 to 32.2 mM.

— PMC2725291, “Genetic and Molecular Basis of Individual Differences in Human Umami Taste Perception” (PLoS ONE, 2009)
